# Measured values published in patent publication US20240239772A1, “PROTEASE INHIBITORS AND METHODS OF USE” (The Cleveland Clinic Foundation, priority 2021, published 2024).
# Biological target: SARS-CoV-2 3CLpro (Severe acute respiratory syndrome coronavirus 2 (2019-nCoV) (SARS-CoV-2), UniProt P0DTD1)
# Experiment: biochemical
# Type: biochemical
# Details: read-out: SARS-CoV-2 IC50
row,Structure (SMILES),IC50 [nM]
1,"O=C(Cn1nnc2ccccc21)N(Cc1ccsc1)c1ccc(-c2c[nH]cn2)cc1 [Compound 21, 2-(Benzotriazol-1-yl)-N-[4-(1H-imidazol-4-yl)phenyl]-N-(3-thienylmethyl)acetamide]",60 ± 10
2,"O=C(Cn1nnc2ccccc21)N(Cc1cccc(Cl)c1)c1ccc(-c2cccnc2)cc1 [Compound 28, 2-(Benzotriazol-1-yl)-N-[(3-chlorophenyl)methyl]-N-[4-(3-pyridyl)phenyl]acetamide]",390 ± 110
3,"NC(=O)Cc1ccc(N(Cc2cc(F)cc(F)c2)C(=O)Cn2nnc3ccccc32)cc1 [Compound 94, 2-[4-[[2-(benzotriazol-1-yl)acetyl]-[(3,5-difluorophenyl)methyl]amino]phenyl]acetamide]",670
4,"O=C(Cn1nnc2ccccc21)N(Cc1ccnc(C(F)(F)F)c1)c1ccc(-c2c[nH]cn2)cc1 [Compound 95, 2-(benzotriazol-1-yl)-N-[4-(1H-imidazol-4-yl)phenyl]-N-[[2-(trifluoromethyl)-4-pyridyl]methyl]acetamide]",2900
5,"O=C(Cn1nnc2ccccc21)N(Cc1cncc(C(F)(F)F)c1)c1ccc(-c2c[nH]cn2)cc1 [Compound 96, 2-(benzotriazol-1-yl)-N-[4-(1H-imidazol-4-yl)phenyl]-N-[[5-(trifluoromethyl)-3-pyridyl]methyl]acetamide]",350
6,"O=C(Cn1nnc2ccccc21)N(Cc1cncc(F)c1)c1ccc(-c2c[nH]cn2)cc1 [Compound 97, 2-(benzotriazol-1-yl)-N-[(5-fluoro-3-pyridyl)methyl]-N-[4-(1H-imidazol-4-yl)phenyl]acetamide]",130
7,"O=C(Cn1nnc2ccccc21)N(Cc1c(F)cccc1F)c1ccc(-c2c[nH]cn2)cc1 [Compound 98, 2-(benzotriazol-1-yl)-N-[(2,6-difluorophenyl)methyl]-N-[4-(1H-imidazol-4-yl)phenyl]acetamide]",980
8,"O=C(Cn1nnc2ccccc21)N(Cc1cc(F)cc(F)c1)c1ccc(CCO)cc1 [Compound 99, 2-(benzotriazol-1-yl)-N-[(3,5-difluorophenyl)methyl]-N-[4-(2-hydroxyethyl)phenyl]acetamide]",460
9,"O=C(Cn1nnc2ccccc21)N(Cc1cc(F)cc(F)c1)c1ccc(-c2ncc[nH]2)cc1 [Compound 100, 2-(benzotriazol-1-yl)-N-[(3,5-difluorophenyl)methyl]-N-[4-(1H-imidazol-2-yl)phenyl]acetamide]",340
10,"O=C1CNCCN1c1ccc(N(Cc2cc(F)cc(F)c2)C(=O)Cn2nnc3ccccc32)cc1 [Compound 101, 2-(benzotriazol-1-yl)-N-[(3,5-difluorophenyl)methyl]-N-[4-(2-oxopiperazin-1-yl)phenyl]acetamide]",3400
11,"N#Cc1ccc(N(Cc2cc(F)cc(F)c2)C(=O)Cn2nnc3ccccc32)cc1 [Compound 102, 2-(benzotriazol-1-yl)-N-(4-cyanophenyl)-N-[(3,5-difluorophenyl)methyl]acetamide]",4700
12,"O=C(Cn1nnc2ccccc21)N(Cc1ccc(F)cn1)c1ccc(-c2c[nH]cn2)cc1 [Compound 103, 2-(benzotriazol-1-yl)-N-[(5-fluoro-2-pyridyl)methyl]-N-[4-(1H-imidazol-4-yl)phenyl]acetamide]",9500
13,"Cc1nc(-c2ccc(N(Cc3cc(F)cc(F)c3)C(=O)Cn3nnc4ccccc43)cc2)c[nH]1 [Compound 104, 2-(benzotriazol-1-yl)-N-[(3,5-difluorophenyl)methyl]-N-[4-(2-methyl-1H-imidazol-4-yl)phenyl]acetamide]",170
14,"O=C(Cn1nnc2ccccc21)N(Cc1cc(F)cc(F)c1)c1ccc(-c2c[nH]nn2)cc1 [Compound 105, 2-(benzotriazol-1-yl)-N-[(3,5-difluorophenyl)methyl]-N-[4-(1H-triazol-4-yl)phenyl]acetamide]",180
15,"O=C(Cn1nnc2ccccc21)N(Cc1cc(F)cc(F)c1)c1ccc(-c2nnc[nH]2)cc1 [Compound 106, 2-(benzotriazol-1-yl)-N-[(3,5-difluorophenyl)methyl]-N-[4-(4H-1,2,4-triazol-3-yl)phenyl]acetamide]",940
16,"NCCc1ccc(N(Cc2cc(F)cc(F)c2)C(=O)Cn2nnc3ccccc32)cc1 [Compound 107, N-[4-(2-aminoethyl)phenyl]-2-(benzotriazol-1-yl)-N-[(3,5-difluorophenyl)methyl]acetamide]",430
17,"O=C(Cn1nnc2ccccc21)N(Cc1cc(F)cc(F)c1)c1ccc(C2CCNC2)cc1 (centres unmarked) [Compound 108, 2-(benzotriazol-1-yl)-N-[(3,5-difluorophenyl)methyl]-N-(4-pyrrolidin-3-ylphenyl)acetamide]",210

row,Structure (SMILES),IC50 [nM]
1,"O=C1C=C(c2ccc(N(Cc3cc(F)cc(F)c3)C(=O)Cn3nnc4ccccc43)cc2)CN1 [Compound 109, 2-(benzotriazol-1-yl)-N-[(3,5-difluorophenyl)methyl]-N-[4-(5-oxo-1,2-dihydropyrrol-3-yl)phenyl]acetamide]",340
2,"COc1ccc(F)cc1CN(C(=O)Cn1nnc2ccccc21)c1ccc(-c2c[nH]cn2)cc1 [Compound 110, 2-(benzotriazol-1-yl)-N-[(5-fluoro-2-methoxy-phenyl)methyl]-N-[4-(1H-imidazol-4-yl)phenyl]acetamide]",200
3,"COc1cc(F)cc(CN(C(=O)Cn2nnc3ccccc32)c2ccc(-c3c[nH]cn3)cc2)c1 [Compound 111, 2-(benzotriazol-1-yl)-N-[(3-fluoro-5-methoxy-phenyl)methyl]-N-[4-(1H-imidazol-4-yl)phenyl]acetamide]",69
4,"O=C(Cn1ccnn1)N(Cc1cc(F)cc(Cl)c1)c1ccc(-c2c[nH]cn2)cc1 [Compound 112, N-[(3-chloro-5-fluoro-phenyl)methyl]-N-[4-(1H-imidazol-4-yl)phenyl]-2-(triazol-1-yl)acetamide]",410
5,"O=C(Cn1ccnn1)N(Cc1cccc(Cl)c1)c1ccc(-c2cn[nH]c2)cc1 [Compound 113, N-[(3-chlorophenyl)methyl]-N-[4-(1H-pyrazol-4-yl)phenyl]-2-(triazol-1-yl)acetamide]",8200
6,"CC(C)(C)CN(C(=O)Cn1nnc2ccccc21)c1ccc(-c2c[nH]cn2)cc1 [Compound 114, 2-(benzotriazol-1-yl)-N-(2,2-dimethylpropyl)-N-[4-(1H-imidazol-4-yl)phenyl]acetamide]",1600
7,"O=C1CC(c2ccc(N(Cc3cc(F)cc(F)c3)C(=O)Cn3nnc4ccccc43)cc2)CN1 (centres unmarked) [Compound 115, 2-(benzotriazol-1-yl)-N-[(3,5-difluorophenyl)methyl]-N-[4-(5-oxopyrrolidin-3-yl)phenyl]acetamide]",240
8,"O=C(Cn1nnc2ccccc21)N(Cc1ccc(Cl)c(F)c1)c1ccc(-c2c[nH]cn2)cc1 [Compound 116, 2-(benzotriazol-1-yl)-N-[(4-chloro-3-fluoro-phenyl)methyl]-N-[4-(1H-imidazol-4-yl)phenyl]acetamide]",2500
9,"COc1ccc(CN(C(=O)Cn2nnc3ccccc32)c2ccc(-c3c[nH]cn3)cc2)cc1F [Compound 117, 2-(benzotriazol-1-yl)-N-[(3-fluoro-4-methoxy-phenyl)methyl]-N-[4-(1H-imidazol-4-yl)phenyl]acetamide]",970
10,"O=C(Cn1nnc2ccccc21)N(Cc1cc(F)cc(F)c1)c1ccc(C2CNC2)cc1 [Compound 118, N-[4-(azetidin-3-yl)phenyl]-2-(benzotriazol-1-yl)-N-[(3,5-difluorophenyl)methyl]acetamide]",78
11,"O=C(Cn1nnc2ccccc21)N(Cc1cncc(F)c1)c1ccc(C2CNC2)cc1 [Compound 119, N-[4-(azetidin-3-yl)phenyl]-2-(benzotriazol-1-yl)-N-[(5-fluoro-3-pyridyl)methyl]acetamide]",600
12,"O=C(Cn1nnc2ccccc21)N(Cc1cc(F)cc(OC(F)(F)F)c1)c1ccc(-c2c[nH]cn2)cc1 [Compound 120, 2-(benzotriazol-1-yl)-N-[[3-fluoro-5-(trifluoromethoxy)phenyl]methyl]-N-[4-(1H-imidazol-4-yl)phenyl]acetamide]",120
13,"O=C(Cn1nnc2ccccc21)N(Cc1cc(F)cc(Cl)c1)c1ccc(C2CNC2)cc1 [Compound 121, N-[4-(azetidin-3-yl)phenyl]-2-(benzotriazol-1-yl)-N-[(3-chloro-5-fluoro-phenyl)methyl]acetamide]",100
14,"O=C(Cn1nnc2ccccc21)N(Cc1cncc(F)c1)c1ccc(C2=CCNC2)cc1 [Compound 122, 2-(benzotriazol-1-yl)-N-[4-(2,5-dihydro-1H-pyrrol-3-yl)phenyl]-N-[(5-fluoro-3-pyridyl)methyl]acetamide]",1500
15,"CC(=O)NCc1ccc(N(Cc2cc(F)cc(F)c2)C(=O)Cn2nnc3ccccc32)cc1 [Compound 123, N-[4-(acetamidomethyl)phenyl]-2-(benzotriazol-1-yl)-N-[(3,5-difluorophenyl)methyl]acetamide]",780
16,"NCc1ccc(N(Cc2cc(F)cc(F)c2)C(=O)Cn2nnc3ccccc32)cc1 [Compound 124, N-[4-(aminomethyl)phenyl]-2-(benzotriazol-1-yl)-N-[(3,5-difluorophenyl)methyl]acetamide]",59

# System: SARS-CoV-2
# Experiment: microbe, parasite or virus in culture
# Type: cell-based
# Details: Severe acute respiratory syndrome coronavirus 2, Vero C1008, 68 h, read-out: CPE Inhibition Assay EC50
row,Structure (SMILES),EC50 [nM]
1,"O=C(Cn1nnc2ccccc21)N(Cc1ccsc1)c1ccc(-c2cccnc2)cc1 [Compound 17b, 2-(1H-benzo[d][1,2,3]triazol-1-yl)-N-(4-(pyridin-3-yl)phenyl)-N-(thiophen-3-ylmethyl)acetamide, reference compound]",12100 ± 310
2,"O=C(Cn1nnc2ccccc21)N(Cc1ccsc1)c1ccc(-c2c[nH]cn2)cc1 [Compound 21, 2-(Benzotriazol-1-yl)-N-[4-(1H-imidazol-4-yl)phenyl]-N-(3-thienylmethyl)acetamide]",1740 ± 190
3,"O=C(Cn1nnc2ccccc21)N(Cc1cccc(Cl)c1)c1ccc(-c2cccnc2)cc1 [Compound 28, 2-(Benzotriazol-1-yl)-N-[(3-chlorophenyl)methyl]-N-[4-(3-pyridyl)phenyl]acetamide]",7610 ± 1430
4,"CCC(CC)COC(=O)[C@H](C)N[P@](=O)(OC[C@H]1O[C@@](C#N)(c2ccc3c(N)ncnn23)[C@H](O)[C@@H]1O)Oc1ccccc1 [Remdesivir, reference compound]",340 ± 10

# System: SARS-CoV-2
# Experiment: microbe, parasite or virus in culture
# Type: cell-based
# Details: Severe acute respiratory syndrome coronavirus 2, Vero C1008, read-out: Plaque Reduction Assay EC50
row,Structure (SMILES),EC50 [nM]
1,"O=C(Cn1nnc2ccccc21)N(Cc1ccsc1)c1ccc(-c2cccnc2)cc1 [Compound 17b, 2-(1H-benzo[d][1,2,3]triazol-1-yl)-N-(4-(pyridin-3-yl)phenyl)-N-(thiophen-3-ylmethyl)acetamide, reference compound]",14600 ± 1220
2,"O=C(Cn1nnc2ccccc21)N(Cc1ccsc1)c1ccc(-c2c[nH]cn2)cc1 [Compound 21, 2-(Benzotriazol-1-yl)-N-[4-(1H-imidazol-4-yl)phenyl]-N-(3-thienylmethyl)acetamide]",1750 ± 250
3,"O=C(Cn1nnc2ccccc21)N(Cc1cccc(Cl)c1)c1ccc(-c2cccnc2)cc1 [Compound 28, 2-(Benzotriazol-1-yl)-N-[(3-chlorophenyl)methyl]-N-[4-(3-pyridyl)phenyl]acetamide]",11100 ± 370
4,"CCC(CC)COC(=O)[C@H](C)N[P@](=O)(OC[C@H]1O[C@@](C#N)(c2ccc3c(N)ncnn23)[C@H](O)[C@@H]1O)Oc1ccccc1 [Remdesivir, reference compound]",430 ± 60
